ChEMBL document CHEMBL4673360, “Discovery of novel HIV-1 integrase-LEDGF/p75 allosteric inhibitors based on a pyridine scaffold forming an intramolecular hydrogen bond” (Bioorg Med Chem Lett, 2021)

Legend:
[1] = Cytotoxicity against human MT4 cells by MTT assay; assay type: cell-based
[2] = tested on: Human immunodeficiency virus 1; assay: Antiviral activity against HIV-1 harbouring T174I mutant infected in human MT4 cells by MTT assay; assay type: functional, organism-based; conditions: Human immunodeficiency virus 1, MT4
[3] = tested on: Human immunodeficiency virus 1; assay: Antiviral activity against wild type HIV-1 infected in human MT4 cells by MTT assay; assay type: functional, organism-based; conditions: Human immunodeficiency virus 1, MT4
[4] = Total clearance in rat at 0.5 mg/kg, iv or 1 mg/kg, po; assay type: ADME, organism-based; conditions: in vivo
[5] = Metabolic stability in rat liver microsomes assessed as parent compound remaining; assay type: ADME, Microsome
[6] = Metabolic stability in human liver microsomes assessed as parent compound remaining; assay type: ADME, Microsome
[7] = AUC in rat at 0.5 mg/kg, iv; assay type: ADME, organism-based; parameters: dose 0.5 mg/kg; conditions: in vivo
[8] = Elimination half-life in rat at 0.5 mg/kg, iv or 1 mg/kg, po; assay type: ADME, organism-based; conditions: in vivo, read-out: LambdaZ (converted)
[9] = Oral bioavailability in rat at 1 mg/kg; assay type: ADME, organism-based; conditions: in vivo

## Cc1ccc(-c2c(C)nc(NS(=O)(=O)c3cccc4ccccc34)c(C)c2C(OC(C)(C)C)C(=O)O)cc1C (stereo not given)
[1]
  CC50: 16000 nM
[2]
  EC50: 1000 nM
[3]
  EC50: 32 nM

## Cc1ccc(-c2c(C)nc(NC(=O)NC3CCCCC3)c(C)c2C(OC(C)(C)C)C(=O)O)cc1C (stereo not given)
[1]
  CC50: 7900 nM
[4]
  clearance: 12.5 mL/min/kg
[5]
  Stabilty: 66%
[6]
  Stabilty: 65%
[2]
  EC50: > 1000 nM
[7]
  AUC: 127 ng·h/mL
[3]
  EC50: 6.6 nM
[8]
  half-life: 1.6 h
[9]
  bioavailability: 9.2%

## Cc1nc(NC(=O)NC2CCCCC2)c(C)c(C(OC(C)(C)C)C(=O)O)c1-c1ccc2c(c1)NCCO2 (stereo not given)
[1]
  CC50: 30000 nM
[3]
  EC50: > 100 nM

## Cc1ccc(-c2c(C)nc(C(=O)NCc3ccccc3)c(C)c2C(OC(C)(C)C)C(=O)O)cc1C (stereo not given)
[1]
  CC50: 54000 nM
[3]
  EC50: 180 nM

## COc1ccc(Nc2nc(C)c(-c3ccc(C)c(C)c3)c(C(OC(C)(C)C)C(=O)O)c2C)cc1 (stereo not given)
[1]
  CC50: 28000 nM
[3]
  EC50: 220 nM

## Cc1ccc(-c2c(C)nc(NC(=O)NC3CCCCCC3)c(C)c2C(OC(C)(C)C)C(=O)O)cc1C (stereo not given)
[1]
  CC50: 7700 nM
[2]
  EC50: > 1000 nM
[3]
  EC50: 11 nM

## Cc1nc(NC(=O)NC2CCCCC2)c(C)c(C(OC(C)(C)C)C(=O)O)c1-c1ccc(C(F)(F)F)cc1 (stereo not given)
[1]
  CC50: 9800 nM
[2]
  EC50: 7700 nM
[3]
  EC50: 61 nM

## Cc1ccc(-c2c(C)nc(NC(=O)NC3CCCC3)c(C)c2C(OC(C)(C)C)C(=O)O)cc1C (stereo not given)
[1]
  CC50: 8000 nM
[2]
  EC50: > 1000 nM
[3]
  EC50: 8.3 nM

## Cc1ccc(-c2c(C)nc(NC(=O)NCCc3ccccc3)c(C)c2C(OC(C)(C)C)C(=O)O)cc1C (stereo not given)
[1]
  CC50: 11000 nM
[2]
  EC50: > 2000 nM
[3]
  EC50: 20 nM

## Cc1ccc(-c2c(C)nc(Nc3nc4ccccc4n3C)c(C)c2C(OC(C)(C)C)C(=O)O)cc1C (stereo not given)
[1]
  CC50: 14000 nM
[3]
  EC50: 190 nM

## Cc1ccc(-c2c(C)nc(C(=O)N(C)Cc3ccccc3)c(C)c2C(OC(C)(C)C)C(=O)O)cc1C (stereo not given)
[1]
  CC50: 77000 nM
[3]
  EC50: 360 nM

## Cc1ccc(-c2c(C)nc(Nc3nc4ccccc4s3)c(C)c2C(OC(C)(C)C)C(=O)O)cc1C (stereo not given)
[1]
  CC50: 6600 nM
[3]
  EC50: 350 nM

## COc1ccc(-c2c(C)nc(NC(=O)NC3CCCCC3)c(C)c2C(OC(C)(C)C)C(=O)O)cc1 (stereo not given)
[1]
  CC50: 19000 nM
[2]
  EC50: 750 nM
[3]
  EC50: 10 nM

## Cc1ccc(-c2c(C)nc(NC(=O)Nc3ccccc3)c(C)c2C(OC(C)(C)C)C(=O)O)cc1C (stereo not given)
[1]
  CC50: 9900 nM
[2]
  EC50: > 1000 nM
[3]
  EC50: 11 nM

## Cc1ccc(-c2c(C)nc(NC(=O)NCc3ccccc3)c(C)c2C(OC(C)(C)C)C(=O)O)cc1C (stereo not given)
[1]
  CC50: 17000 nM
[2]
  EC50: > 4000 nM
[3]
  EC50: 35 nM

## Cc1ccc(-c2c(C)nc(NC(=O)NC3CCOCC3)c(C)c2C(OC(C)(C)C)C(=O)O)cc1C (stereo not given)
[1]
  CC50: 29000 nM
[2]
  EC50: > 5000 nM
[3]
  EC50: 45 nM

## Cc1nc(NC(=O)NC2CCCCC2)c(C)c(C(OC(C)(C)C)C(=O)O)c1-c1ccc2c(c1)CCCO2 (stereo not given)
[1]
  CC50: 17000 nM
[2]
  EC50: 560 nM
[3]
  EC50: 21 nM

## Cc1nc(NC(=O)NC2CCCCC2)c(C)c(C(OC(C)(C)C)C(=O)O)c1-c1ccc(Cl)cc1 (stereo not given)
[1]
  CC50: 16000 nM
[2]
  EC50: 1800 nM
[3]
  EC50: 17 nM

## Cc1nc(NC(=O)NC2CCCCC2)c(C)c(C(OC(C)(C)C)C(=O)O)c1-c1ccc2c(c1C)CCCO2 (stereo not given)
[1]
  CC50: 11000 nM
[2]
  EC50: 270 nM
[3]
  EC50: 6.6 nM

## Cc1nc2ccccc2c(-c2ccc3c4c(ccnc24)CCO3)c1[C@H](OC(C)(C)C)C(=O)O [BI-224436]
[1]
  CC50: > 50000 nM
[2]
  EC50: > 5000 nM
[3]
  EC50: 22 nM
